Measurements: ChEMBL document CHEMBL3352631, “The identification of 7-[(R)-2-((1S,2S)-2-benzyloxycyclopentylamino)-1-hydroxyethyl]-4-hydroxybenzothiazolone as an inhaled long-acting β2-adrenoceptor agonist” (Bioorg Med Chem Lett, 2014)

Columns and labels:
[1] = Lipophilicity, logD of the compound at pH 7.4 by chromatographic method; assay type: physicochemical; settings: buffer
[2] = test system: Rattus norvegicus; assay: Volume of distribution at steady state in rat at 2.1 umol/kg, iv; assay type: ADME, organism-based; settings: in vivo
[3] = test system: Rattus norvegicus; assay: Volume of distribution at steady state in rat at 5 umol/kg, iv; assay type: ADME, organism-based; settings: in vivo

| chromatographic logD [1] | Vdss [2] [mL/min/kg] | Vdss [3] [mL/min/kg] | SMILES |
| --- | --- | --- | --- |
| 1.25 | 6.2 | – | O=c1[nH]c2c(O)ccc([C@@H](O)CN[C@H]3CCC[C@@H]3OCc3ccccc3)c2s1 |
| 1.77 | – | 4.1 | CCc1cc2c(cc1CC)CC(NC[C@H](O)c1ccc(O)c3[nH]c(=O)ccc13)C2 [INDACATEROL] |
